Measurements as given in article PMC9582194, “The effect of helix-inducing constraints and downsizing upon a transcription block survival-derived functional cJun antagonist” (Cell Reports. Physical Science, 2022).

What was measured:
[1] = CD thermal denaturation of peptide alone, 222 nm
Method: The LZ domain of HW1 has four point mutations from its parent sequence, FosW, which is known to homodimerize.[24]
Protein/DNA samples were suspended in 20 mM potassium phosphate, 150 mM potassium fluoride, and 2 mM TCEP (pH 7.4). cJun was added to DNA before addition of antagonist peptide, and these samples were equilibrated for 30 min before measurement.

[2] = Peptide fraction helicity by CD at 222 nm, peptide-only samples; assay type: physicochemical; details: CD signal at 222 nm of peptide-only samples; pH 7.4 phosphate/KF/TCEP buffer; duplicate experiments
How it was run: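 Fraction helicity of each peptide alone was derived from the CD signal at 222 nm. Separately, thermal denaturation of heterodimers with a 60-residue cJun bZIP construct was used to obtain Tm.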

cJun = target: T1, cJun (Homo sapiens, UniProt P05412); experiment: CD thermal denaturation of peptide-cJun heterodimers (Tm); assay type: binding; details: CD ellipticity at 222 nm, 1-90 °C; peptide (5 μM)/cJun (5 μM); 20 mM potassium phosphate, 150 mM potassium fluoride, 2 mM TCEP pH 7.4; two-state fit; duplicate experiments, ± one SD
T1 construct: The same 60 amino acid cJun construct, encompassing the entire bZIP domain, was used for all experiments
How it was run: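 Peptide/cJun heterodimers (each 5 μM, 60-residue cJun bZIP construct) melted while CD was monitored to give Tm. For antagonism, peptides titrated into pre-incubated cJun (20 μM) with TRE DNA (5 μM); shift of a DNA-specific CD peak toward free TRE gave fraction bound, Hill fit gave IC50; triplicates.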

T1 sequence (P05412 252-315 limits assumed): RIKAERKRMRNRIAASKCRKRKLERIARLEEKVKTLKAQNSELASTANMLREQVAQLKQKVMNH

Ac-LVVEEDVLEEEIEQLEERNYALRKEIEDLQKQLEKL-NH2 [HW5]
Tm of peptide alone [1]: 41 °C | fH, peptide fraction helicity [2]: 46.7% | Tm of peptide-cJun heterodimer (cJun): 62.8 ± 1.0 °C
